# From US6518308B2, “Compositions for adhesion prevention” (priority 2000, dated 2003)
# Columns and labels:
# [1] = system: human mesothelial cells or human fibroblasts; assay: cell cultures under hypoxic conditions, production of inflammatory cytokines and growth factors; format: cell-based; details: human mesothelial cells or human fibroblasts cultured under hypoxic conditions, presence vs absence of dichloroacetic acid
# Description: Similarly, cell cultures using human mesothelial cells or human fibroblasts are cultured under hypoxic conditions in the presence and absence of dichloroacetic acid. The production of inflammatory cytokines and growth factors is measured, and found to be reduced in the presence of dichloroacetic acid. These growth factors, such as IL-1 and TGF-β, are believed to be associated with adhesion development.
# [2] = animal adhesion study, monitoring of serum alanine and lactate; format: in vivo, rat or rabbit; details: in the presence of dichloroacetic acid, intravenous injection or slow release
# Description: An animal adhesion study to evaluate the effectiveness of the pharmaceutical compositions described previously is conducted using a standardized animal model, such as a model of cecal abrasion in the rat or an oravian bisection in the rabbit.
# The animals undergo lesioning by a surgeon unaware of group assignment, with necropsy performed one to two weeks later as is standard for that particular animal model.
# The animals are randomized in a placebo control group and a group using dichloroacetic acid. The treatment begins preoperatively, and continues for five days after surgery. Dichloroacetic acid is administered by intravenous injection, or by slow release from a delivery agent, and is left in the peritoneal cavity following surgery. The maintenance of adequate amounts of dichloroacetic acid can be monitored by the measurement of serum alanine and lactate, which is reduced in the presence of dichloroacetic acid. Necropsy is performed on the animals, and adhesions are scored. Studies are completed on a total of 30 animals in each group in at least three settings.
smiles,measurement,setting,value
O=C(O)C(Cl)Cl [dichloroacetic acid],production of inflammatory cytokines and growth factors (such as IL-1 and TGF-β),[1],reduced
same,serum alanine and lactate,[2],reduced
